Consider four molecules from ChEMBL document CHEMBL4261615, “Design, synthesis, biological evaluation and cellular imaging of imidazo[4,5-b]pyridine derivatives as potent and selective TAM inhibitors” (Bioorg Med Chem, 2018).

Each structure is given as a SMILES string. Activity calls are given as the source filed them. The rule behind the calls is not given here.

Data set [1] addresses T1, Tyrosine-protein kinase receptor TYRO3 (Homo sapiens) (UniProt Q06418).
T1 sequence (whole entry): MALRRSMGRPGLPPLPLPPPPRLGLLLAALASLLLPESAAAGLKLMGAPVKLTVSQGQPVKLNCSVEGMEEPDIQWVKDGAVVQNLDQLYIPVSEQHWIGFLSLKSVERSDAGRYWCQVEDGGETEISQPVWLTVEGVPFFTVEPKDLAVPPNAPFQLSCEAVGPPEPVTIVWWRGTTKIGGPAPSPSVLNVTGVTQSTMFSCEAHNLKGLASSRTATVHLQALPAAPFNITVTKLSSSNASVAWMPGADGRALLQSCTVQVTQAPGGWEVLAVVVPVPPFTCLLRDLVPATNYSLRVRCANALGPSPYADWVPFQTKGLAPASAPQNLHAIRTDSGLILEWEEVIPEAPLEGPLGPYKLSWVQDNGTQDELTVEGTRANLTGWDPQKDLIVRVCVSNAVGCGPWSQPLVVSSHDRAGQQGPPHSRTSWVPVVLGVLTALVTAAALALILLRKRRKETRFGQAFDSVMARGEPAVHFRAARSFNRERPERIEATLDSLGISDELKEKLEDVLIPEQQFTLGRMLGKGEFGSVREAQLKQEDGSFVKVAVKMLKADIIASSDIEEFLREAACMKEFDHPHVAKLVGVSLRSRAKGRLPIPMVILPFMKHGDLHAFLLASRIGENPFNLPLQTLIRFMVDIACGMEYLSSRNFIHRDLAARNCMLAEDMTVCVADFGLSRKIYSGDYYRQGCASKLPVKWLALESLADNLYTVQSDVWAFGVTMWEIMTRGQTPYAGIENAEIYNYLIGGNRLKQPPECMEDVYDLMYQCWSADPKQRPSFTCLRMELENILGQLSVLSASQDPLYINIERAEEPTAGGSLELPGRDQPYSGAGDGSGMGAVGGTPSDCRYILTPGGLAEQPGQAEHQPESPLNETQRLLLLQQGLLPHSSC
Description: Inhibition of recombinant GST-tagged human Tyro3 (451 to 890 residues) cytoplasmic domain expressed in Baculovirus expression system using poly (Glu-Ala-Tyr) peptide as substrate after 1.5 hrs by ELISA. (ELISA stands for enzyme-linked immunosorbent assay.)

Data set [2] concerns the target Serine/threonine-protein kinase B-raf (Homo sapiens) (UniProt P15056). Description: Binding affinity to wild-type human partial length BRAF (S429 to E741 residues) expressed in mammalian expression system assessed as fraction of unbound kinase to substrate at 1 uM after 1 hr by KinomeScan assay.
A short description of data set [3]: Solubility of the compound in 0.2% DMSO. Type of data set: physicochemical.
The species entered for data set [4] is Homo sapiens. Description: Selectivity ratio of IC50 for recombinant GST-tagged human Mer (578 to 872 residues) cytoplasmic domain to IC50 for recombinant His-tagged human Axl (473 to end residues) cytoplasmic domain.
For data set [5], the species on record is Homo sapiens. Description: Selectivity ratio of IC50 for recombinant GST-tagged human Tyro3 (451 to 890 residues) cytoplasmic domain to IC50 for recombinant His-tagged human Axl (473 to end residues) cytoplasmic domain.
A short description of data set [6]: Drug localization in cytoplasm of human A549 cells at 10 uM after 24 hrs by NanoSIMS analysis. The note with it: a549, 24 h. The data set is classed as ADME, subcellular.
Data set [7] is described as follows: Drug localization in nucleus of human MGHU3 cells at 10 uM after 24 hrs by NanoSIMS analysis. The note with it: mghu3, 24 h. Type of data set: ADME, subcellular.
Data set [8] can be described thus: Drug localization in nucleus of human A549 cells at 10 uM after 24 hrs by NanoSIMS analysis. Type of data set: ADME, subcellular. The note with it: a549, 24 h.

Sequence of Serine/threonine-protein kinase B-raf (Homo sapiens) (P15056 whole entry, the tested form may be a part): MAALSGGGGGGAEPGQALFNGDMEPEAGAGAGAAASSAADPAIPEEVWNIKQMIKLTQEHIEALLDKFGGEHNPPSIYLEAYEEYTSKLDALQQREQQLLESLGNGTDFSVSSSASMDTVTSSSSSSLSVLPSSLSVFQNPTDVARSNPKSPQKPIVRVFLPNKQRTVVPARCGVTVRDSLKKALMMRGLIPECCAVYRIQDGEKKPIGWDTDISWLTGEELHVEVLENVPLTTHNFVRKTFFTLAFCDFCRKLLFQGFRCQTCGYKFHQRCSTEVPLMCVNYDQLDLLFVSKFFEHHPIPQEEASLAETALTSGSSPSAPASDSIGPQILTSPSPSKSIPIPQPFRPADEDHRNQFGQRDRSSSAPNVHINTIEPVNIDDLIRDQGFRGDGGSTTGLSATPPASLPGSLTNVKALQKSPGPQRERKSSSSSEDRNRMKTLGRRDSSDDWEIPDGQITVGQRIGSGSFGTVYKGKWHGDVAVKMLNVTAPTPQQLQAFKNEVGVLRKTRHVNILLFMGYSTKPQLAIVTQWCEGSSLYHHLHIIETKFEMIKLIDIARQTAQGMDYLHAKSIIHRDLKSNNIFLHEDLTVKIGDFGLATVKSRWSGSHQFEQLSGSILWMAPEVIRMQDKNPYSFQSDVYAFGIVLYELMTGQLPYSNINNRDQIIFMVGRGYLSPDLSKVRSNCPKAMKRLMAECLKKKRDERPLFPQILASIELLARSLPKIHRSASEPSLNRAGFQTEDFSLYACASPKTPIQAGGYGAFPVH

As to `O=C(Nc1ccc(Oc2c(Br)cnc3[nH]cnc23)c(F)c1)c1cccn(-c2ccc(F)cc2)c1=O`, the inhibition entry in data set [1] is “inactive”. Moreover, the Activity in data set [2] came out at 0%. In addition, the solubility result in data set [3] is “Insoluble”.

Take `Cc1cnc2[nH]cnc2c1Oc1ccc(NC(=O)c2cccn(-c3ccc(F)cc3)c2=O)cc1F`: the inhibition result in data set [1] was “inactive”. Moreover, in data set [2], the Activity stood at 2%.

With `O=C(Nc1ccc(Oc2ccnc3[nH]cnc23)c(F)c1)c1cccn(-c2ccc(F)cc2)c1=O`, in data set [1], the inhibition entry was “Active”. Besides, the Activity in data set [2] is 12%. For the same molecule, the Ratio IC50 in the data set filed under Homo sapiens [4] and in the data set filed under Homo sapiens [5] was 120 to 900 in each case.

Take `CC(C)c1nc2c(Oc3ccc(NC(=O)c4cccn(-c5ccc(F)cc5)c4=O)cc3F)ccnc2[nH]1`: the Drug uptake result in data set [6], in data set [7] and in data set [8] was “Active” each time. The inhibition result in data set [1] was “inactive”. Moreover, the Activity in data set [2] stood at 8%.
